Results: patent US6465442B2, “Topical application of muscarinic and opioid agents for treatment of tinnitus” (priority 1999, dated 2002)
Where “and” joins values, the source holds several entries; their conditions need not be identical. Identical values can stand only once.

Assays:
[1] = Otic solution administered by drops to the affected ear of patients complaining of tinnitus; format: in vivo, human; details: every 4-6 hrs.
[2] = as above; format: in vivo, human
Protocol: A group of ten patients complaining of tinnitus were treated with an otic solution comprising about 500 μg/30 ml of neostigmine. One to two drops of the solution was administered to the affected ear about once every 4-6 hours. The patients reported relief within about 20 minutes after initial administration of the otic composition.

[3] = individual tinnitus patients, stadol 1 mg/30 cc otic solution
[4] = individual tinnitus patient, morphine 2 mg/30 cc otic solution
[5] = individual tinnitus patients, neostigmine 500 μg/30 cc otic solution, every 4-6 hrs.

Compound: Oc1ccc2c(c1)[C@@]13CCCC[C@@]1(O)[C@@H](C2)N(CC1CCC1)CC3 [stadol, butorphanol]
- Results (improvement) [1, 3]: 60% and 80% (2×)
- Side Effects [1, 3]: None

Compound: CN1CC[C@]23c4c5ccc(O)c4O[C@H]2[C@@H](O)C=C[C@H]3[C@H]1C5 [morphine]
- Results (improvement) [1, 4]: 60%
- Side Effects [1, 4]: None

Compound: CN(C)C(=O)Oc1cccc([N+](C)(C)C)c1 [neostigmine]
- relief of the tinnitus symptoms reported by patients ([2]; group of ten patients, about 500 μg/30 ml otic solution, one to two drops about once every 4-6 hours): significant relief
- time to relief after initial administration of the otic composition ([2]; group of ten patients, about 500 μg/30 ml otic solution, one to two drops to affected ear): ≤ 20 min
- Results (improvement) [2, 5]: 90% and 80% (4×) and 70%
- Side Effects [2, 5]: None
